# Source: ChEMBL document CHEMBL1127385, “Synthesis and diuretic activity of alkyl- and arylguanidine analogs of N,N'-dicyclohexyl-4-morpholinecarboxamidine in rats and dogs” (J Med Chem, 1994)
# Tests used:
# Rattus norvegicus [1] = assay: Total electrolytic excretion of chlorine in urine of rats after peroral administration of 97.1 uM/Kg of drug; type: ADME, organism-based; details: in vivo, po
# Rattus norvegicus [2] = assay: Total electrolytic excretion of chlorine in urine of rats after peroral administration of 324 uM/Kg of drug; type: ADME, organism-based; details: in vivo, po
# Rattus norvegicus [3] = assay: Total electrolytic excretion of potassium in urine of rats after peroral administration of 97.1 uM/Kg of drug; type: ADME, organism-based; details: in vivo, po
# Rattus norvegicus [4] = assay: Total electrolytic excretion of potassium in urine of rats after peroral administration of 32.4 uM/Kg of drug; type: ADME, organism-based; details: in vivo, po
# Rattus norvegicus [5] = assay: Total electrolytic excretion of potassium in urine of rats after peroral administration of 324 uM/Kg of drug; type: ADME, organism-based; details: in vivo, po
# Rattus norvegicus [6] = assay: Total electrolytic excretion of sodium in urine of rats after peroral administration of 97.1 uM/Kg of drug; type: ADME, organism-based; details: in vivo, po
# Rattus norvegicus [7] = assay: Tested for the diuretic activity by measuring the urinary volume after peroral administering 97.1 uM/Kg of drug in rats; type: ADME, organism-based, Urine; details: in vivo, po
# Rattus norvegicus [8] = assay: Tested for the diuretic activity by measuring the urinary volume after peroral administering 32.4 uM/Kg of drug in rats; type: ADME, organism-based, Urine; details: in vivo, po
# Rattus norvegicus [9] = assay: Tested for the diuretic activity by measuring the urinary volume after peroral administering 324 uM/Kg of drug in rats; type: ADME, organism-based, Urine; details: in vivo, po
# Rattus norvegicus [10] = assay: Total electrolytic excretion of sodium in urine of rats after peroral administration of 32.4 uM/Kg of drug; type: ADME, organism-based; details: in vivo, po
# Rattus norvegicus [11] = assay: Total electrolytic excretion of sodium in urine of rats after peroral administration of 324 uM/Kg of drug; type: ADME, organism-based; details: in vivo, po
# Rattus norvegicus [12] = assay: Ratio of Total electrolytic excretion of sodium and potassium in urine of rats after peroral administration of 32.4 uM/Kg of drug; type: ADME, organism-based; details: in vivo, po
# Rattus norvegicus [13] = assay: Ratio of Total electrolytic excretion of sodium and potassium in urine of rats after peroral administration of 324 uM/Kg of drug; type: ADME, organism-based; details: in vivo, po
# Rattus norvegicus [14] = assay: Ratio of Total electrolytic excretion of sodium and potassium in urine of rats after peroral administration of 97.1 uM/Kg of drug; type: ADME, organism-based; details: in vivo, po
# Rattus norvegicus [15] = assay: Ratio of Total electrolytic excretion of sodium and potassium in urine of rats after intravenous administration of 23.5 uM/Kg of drug; type: ADME, organism-based; details: in vivo
# Rattus norvegicus [16] = assay: Ratio of Total electrolytic excretion of sodium and potassium in urine of rats after intravenous administration of 70.6 uM/Kg of drug; type: ADME, organism-based; details: in vivo
# Rattus norvegicus [17] = assay: Total electrolytic excretion of chlorine in urine of rats after peroral administration of 32.4 uM/Kg of drug; type: ADME, organism-based; details: in vivo, po
# Rattus norvegicus [18] = assay: Total electrolytic excretion of chlorine in urine of rats after peroral administration of 86.7 uM/Kg of drug; type: ADME, organism-based; details: in vivo, po
# Canis familiaris [19] = assay: Total electrolytic excretion of potassium in urine of dogs after intravenous administration of 26.2 uM/Kg of drug; type: ADME, organism-based, Canis lupus familiaris; details: dog, in vivo
# Canis familiaris [20] = assay: Total electrolytic excretion of potassium in urine of dogs after intravenous administration of 52.4 uM/Kg of drug; type: ADME, organism-based, Canis lupus familiaris; details: dog, in vivo
# Canis familiaris [21] = assay: Total electrolytic excretion of potassium in urine of dogs after intravenous administration of 7.85 uM/Kg of drug; type: ADME, organism-based, Canis lupus familiaris; details: dog, in vivo
# Rattus norvegicus [22] = assay: Total electrolytic excretion of chlorine in urine of rats after peroral administration of 28.9 uM/Kg of drug; type: ADME, organism-based; details: in vivo, po
# Rattus norvegicus [23] = assay: Total electrolytic excretion of chlorine in urine of rats after peroral administration of 289 uM/Kg of drug; type: ADME, organism-based; details: in vivo, po
# Canis familiaris [24] = assay: Total electrolytic excretion of sodium in urine of dogs after intravenous administration of 52.4 uM/Kg of drug; type: ADME, organism-based, Canis lupus familiaris; details: dog, in vivo
# Rattus norvegicus [25] = assay: Total electrolytic excretion of potassium in urine of rats after peroral administration of 86.7 uM/Kg of drug; type: ADME, organism-based; details: in vivo, po
# Canis familiaris [26] = assay: Total electrolytic excretion of chlorine in urine of dogs after intravenous administration of 26.2 uM/Kg of drug; type: ADME, organism-based, Canis lupus familiaris; details: dog, in vivo
# Canis familiaris [27] = assay: Total electrolytic excretion of chlorine in urine of dogs after intravenous administration of 52.4 uM/Kg of drug; type: ADME, organism-based, Canis lupus familiaris; details: dog, in vivo
# Canis familiaris [28] = assay: Total electrolytic excretion of chlorine in urine of dogs after intravenous administration of 7.85 uM/Kg of drug; type: ADME, organism-based, Canis lupus familiaris; details: dog, in vivo
# Canis familiaris [29] = assay: Total electrolytic excretion of sodium in urine of dogs after intravenous administration of 26.2 uM/Kg of drug; type: ADME, organism-based, Canis lupus familiaris; details: dog, in vivo
# Canis familiaris [30] = assay: Total electrolytic excretion of sodium in urine of dogs after intravenous administration of 7.85 uM/Kg of drug; type: ADME, organism-based, Canis lupus familiaris; details: dog, in vivo
# Rattus norvegicus [31] = assay: Total electrolytic excretion of potassium in urine of rats after peroral administration of 28.9 uM/Kg of drug; type: ADME, organism-based; details: in vivo, po
# Rattus norvegicus [32] = assay: Total electrolytic excretion of potassium in urine of rats after peroral administration of 289 uM/Kg of drug; type: ADME, organism-based; details: in vivo, po
# Rattus norvegicus [33] = assay: Total electrolytic excretion of sodium in urine of rats after peroral administration of 86.7 uM/Kg of drug; type: ADME, organism-based; details: in vivo, po
# Rattus norvegicus [34] = assay: Tested for the diuretic activity by measuring the urinary volume after peroral administering 86.7 uM/Kg of drug in rats; type: ADME, organism-based, Urine; details: in vivo, po
# Rattus norvegicus [35] = assay: Total electrolytic excretion of sodium in urine of rats after peroral administration of 28.9 uM/Kg of drug; type: ADME, organism-based; details: in vivo, po
# Rattus norvegicus [36] = assay: Total electrolytic excretion of sodium in urine of rats after peroral administration of 289 uM/Kg of drug; type: ADME, organism-based; details: in vivo, po
# Canis familiaris [37] = assay: Tested for the diuretic activity by measuring the urinary volume after intravenous administering 7.85 uM/Kg of drug in dogs; type: ADME, organism-based, Canis lupus familiaris, Urine; details: dog, in vivo
# Canis familiaris [38] = assay: Tested for the diuretic activity by measuring the urinary volume after intravenous administering 26.2 uM/Kg of drug in dogs; type: ADME, organism-based, Canis lupus familiaris, Urine; details: dog, in vivo
# Canis familiaris [39] = assay: Tested for the diuretic activity by measuring the urinary volume after intravenous administering 52.4 uM/Kg of drug in dogs; type: ADME, organism-based, Canis lupus familiaris, Urine; details: dog, in vivo
# Rattus norvegicus [40] = assay: Tested for the diuretic activity by measuring the urinary volume after peroral administering 28.9 uM/Kg of drug in rats; type: ADME, organism-based, Urine; details: in vivo, po
# Rattus norvegicus [41] = assay: Tested for the diuretic activity by measuring the urinary volume after peroral administering 289 uM/Kg of drug in rats; type: ADME, organism-based, Urine; details: in vivo, po
# Rattus norvegicus [42] = assay: Ratio of Total electrolytic excretion of sodium and potassium in urine of rats after peroral administration of 28.9 uM/Kg of drug; type: ADME, organism-based; details: in vivo, po
# Rattus norvegicus [43] = assay: Ratio of Total electrolytic excretion of sodium and potassium in urine of rats after peroral administration of 289 uM/Kg of drug; type: ADME, organism-based; details: in vivo, po
# Rattus norvegicus [44] = assay: Ratio of Total electrolytic excretion of sodium and potassium in urine of rats after peroral administration of 86.7 uM/Kg of drug; type: ADME, organism-based; details: in vivo, po
# Rattus norvegicus [45] = assay: Ratio of Total electrolytic excretion of sodium and potassium in urine of rats after intravenous administration of 26.2 uM/Kg of drug; type: ADME, organism-based; details: in vivo
# Rattus norvegicus [46] = assay: Ratio of Total electrolytic excretion of sodium and potassium in urine of rats after intravenous administration of 52.4 uM/Kg of drug; type: ADME, organism-based; details: in vivo
# Canis familiaris [47] = assay: Ratio of mean of 5 hr urinary excretion of Na+ and K+ from dogs at 7.85 umol/kg (iv); type: ADME, organism-based, Canis lupus familiaris, Urine; details: dog, in vivo
structure (smiles),measurement,setting,value
c1ccc(C/N=C(/NCc2ccccc2)N2CCOCC2)cc1,Excretion Cl-,Rattus norvegicus [1],1.14 m equiv
same,Excretion Cl-,Rattus norvegicus [2],1.94 m equiv
same,Excretion K+,Rattus norvegicus [3],0.31 m equiv
same,Excretion K+,Rattus norvegicus [4],0.33 m equiv
same,Excretion K+,Rattus norvegicus [5],0.42 m equiv
same,Excretion Na+,Rattus norvegicus [6],1.13 m equiv
same,V,Rattus norvegicus [7],7.3 mL
same,V,Rattus norvegicus [8],5.4 mL
same,V,Rattus norvegicus [9],13.8 mL
same,Excretion Na+,Rattus norvegicus [10],0.77 m equiv
same,Excretion Na+,Rattus norvegicus [11],2.25 m equiv
same,Ratio,Rattus norvegicus [12],2.4
same,Ratio,Rattus norvegicus [13],5.4
same,Ratio,Rattus norvegicus [14],3.6
same,Ratio,Rattus norvegicus [15],16.4
same,Ratio,Rattus norvegicus [16],29.5
same,Excretion Cl-,Rattus norvegicus [17],0.86 m equiv
C1CCC(/N=C(\NC23CC4CC(CC(C4)C2)C3)N2CCOCC2)CC1,Excretion Cl-,Rattus norvegicus [18],1.54 m equiv
same,Excretion K+,Canis familiaris [19],2.3 m equiv
same,Excretion K+,Canis familiaris [20],3.3 m equiv
same,Excretion K+,Canis familiaris [21],1.4 m equiv
same,Excretion Cl-,Rattus norvegicus [22],0.97 m equiv
same,Excretion Cl-,Rattus norvegicus [23],1.82 m equiv
same,Excretion Na+,Canis familiaris [24],36 m equiv
same,Excretion K+,Rattus norvegicus [25],0.24 m equiv
same,Excretion Cl-,Canis familiaris [26],22.4 m equiv
same,Excretion Cl-,Canis familiaris [27],28.8 m equiv
same,Excretion Cl-,Canis familiaris [28],7 m equiv
same,Excretion Na+,Canis familiaris [29],27.9 m equiv
same,Excretion Na+,Canis familiaris [30],8.4 m equiv
same,Excretion K+,Rattus norvegicus [31],0.24 m equiv
same,Excretion K+,Rattus norvegicus [32],0.24 m equiv
same,Excretion Na+,Rattus norvegicus [33],1.58 m equiv
same,V,Rattus norvegicus [34],9.9 mL
same,Excretion Na+,Rattus norvegicus [35],1 m equiv
same,Excretion Na+,Rattus norvegicus [36],1.86 m equiv
same,V,Canis familiaris [37],62 mL
same,V,Canis familiaris [38],197 mL
same,V,Canis familiaris [39],218 mL
same,V,Rattus norvegicus [40],5.5 mL
same,V,Rattus norvegicus [41],11.3 mL
same,Ratio,Rattus norvegicus [42],4.2
same,Ratio,Rattus norvegicus [43],7.9
same,Ratio,Rattus norvegicus [44],6.6
same,Ratio,Rattus norvegicus [45],15.3
same,Ratio,Rattus norvegicus [46],12
same,Ratio,Canis familiaris [47],8.8
